Laboratory results taken from patent US20080004345A1, “Novel Water-Soluble Fullerene, Process for Producing the Same and Active Oxygen Generator Containing the Fullerene” (priority 2004, published 2008).

Key:
[1] = Molecular weight of aggregate by high performance liquid chromatography (TSKgel G3000PWXL); assay type: physicochemical; details: HPLC, 50 mM phosphate buffer pH 6.9 with 0.3 M sodium chloride (20% acetonitrile for Example 1), PEG molecular weight markers
Procedure: Measurement of molecular weight of a fraction obtained by extracting the reaction liquid with equivalent amount of distilled water in Example 1 and a fraction after passing the aqueous layer through the cation exchange resin column was carried out using high performance liquid chromatography system 8020 (Tosoh Co., Ltd.) with TSKgel G3000PWXL (Tosoh Co., Ltd.). 50 mM phosphate buffer (pH 6.9) containing 20% acetonitrile and 0.3 M sodium chloride was used as mobile phase with a flow rate of mobile phase of 0.5 mL/min and the detection was performed at ultra-violet absorption of fullerene. Polyethylene glycols having known molecular weight (molecular weight 94,000 and 5,000) were used as molecular weight markers and the retention time was shown in FIG. 1.
As a comparative control, PEG having a methyl group at one end and an aminopropyl group at the other end and having a molecular weight 5000 was used, and the measurement of molecular weight of a fullerene-water-soluble polymer conjugate synthesized in a molar ratio of 1:10 following a method described in Example 1 of JP-A-09-235235 was carried out. 50 mM phosphate buffer (pH 6.9) containing 0.3 M sodium chloride was used as mobile phase with a flow rate of mobile phase of 1 mL/min and the detection was performed at ultra-violet absorption of fullerene. […]

[2] = test system: mouse colon cancer Colon26; assay: In vivo anticancer activity by light irradiation in cancer bearing mice
Procedure: Administration routes were changed and anticancer activity in vivo by light irradiation was compared. Cancer bearing mice were prepared by removing a tumor block which had been passaged from mouse colon cancer Colon26 cells (provided by Cancer Chemotherapy Center of Cancer Research Society) by subcutaneous transplantation of BALB/c-nn (female, Charles River-Laboratories Japan, Inc.) and transplanting a strip piece onto the back subcutis of CDF1 mouse (female, Charles River Laboratories Japan, Inc.). The cancer bearing mice were used in the experiment in five days after transplantation in which cancer having a diameter of around 5 mm was formed in subcutis. […]
Cancer bearing mice to which water-soluble fullerene was not administered and which were not irradiated with light were used as a control group and the size of the tumor of the subcutaneous region was measured for each mouse with time. The cancer size was measured by actually measuring the major axis and the minor axis of the cancer with a slide caliper and calculated using a calculation formula reported by Winn (Natl. Cancer Inst Monogr., Vol. 2, p 113-138 (1960)).

[3] = Particle size measurement by light scattering method; assay type: physicochemical; details: in distilled water, 1 mg/mL and 100 μg/mL
Procedure: Particle size measurement by light scattering method was performed on the water-soluble fullerene of the present invention. The water-soluble fullerene which was synthesized with Example 1 was dissolved in distilled water so that the final concentration might be 1 mg/mL and 100 μg/mL. This solution was measured with light scattering measuring apparatus DLS-7000 (Otsuka Electronics Co., Ltd.).

[4] = Amount of active oxygen generated by light irradiation, cytochrome method; details: 200 μM solution mixed with cytochrome c in HBSS, light 220-800 nm, 30° C., 20 minutes
Procedure: The amount of generated active oxygen (superoxide anion, O2^−) was measured by cytochrome method. 200 μL of a solution in which cytochrome c (Nacalai Tesque Corporation) was dissolved in a Hanks' balanced salt solution (HBSS, pH 7.4, Lifetech Oriental Company) so that the final concentration might be 50 μM and 200 μL of a solution in which fullerene linked to one molecule of PEG (molecular weight 12000) prepared in Example 2 was dissolved in HBSS so that the final concentration might be 200 μM were mixed. This mixed solution was irradiated with light of various wavelengths (220-800 nm) with spectrophotofluorometer F-2000 (Hitachi, Ltd.) at 30° C. for 20 minutes. After irradiation, absorbance of the solution at 550 nm was measured with spectrophotometer DU-650 (Beckmann Company). The amount of generated O2— per minute was shown in FIG. 4 assuming a solution under light shielding condition at 30° C. for 20 minutes as control.

RLmale 1 cells = assay: In vitro cancer cell growth inhibitory activity by light irradiation; assay type: cell-based; details: 62.5-250 μM solutions, light irradiated for 40 minutes, cultured three days
Procedure: Cancer cell growth inhibitory activity in in vitro by light irradiation was measured. RLmale 1 cells (provided by Kyoto Pasteur Laboratory) were used as a cancer cell and these cells were incubated under culture conditions of 5% CO2, 95% atmosphere, at 37° C. in RPMI 1640 culture medium (Sigma Company, containing 10% fetal bovine serum) with 100 mm dish till they became 80% confluent. The water-soluble fullerene of Example 2 was dissolved in a culture medium of the same composition as used for culture of cancer cells under light shielding condition and after adjusted to the concentration of 250 μM, it was sterilized and filtered. The sterilized solution of 250 μM was diluted with a culture medium sequentially to prepare solutions of 125 μM and 62.5 μM. […] After the culturing for three days, 10 μL each of viable count measurement reagent SF (Nacalai Tesque Corporation) was added into each well, and after kept warm in an incubator for 80 minutes, absorbance at 450 nm was measured with a microplate leader VERSAmax (Japanese Molecular Device Company). The survival rate of cancer cells was determined assuming that the absorbance at 450 nm for the case in which compound of Example 2 was not added was 100% survival rate and the results are shown in FIG. 5.

[5] = Amount of active oxygen generated by ultrasonic irradiation, viable count measurement reagent SF; details: 200 μM solution, 1 MHz, duty cycle 30%, five minutes, output 1.5, 2.0, 2.5 and 3.0 W/cm^2
Procedure: The amount of active oxygen (superoxide anion, O2^−) generated by ultrasonic irradiation was measured using viable count measurement reagent SF with reference to a report by Ukeda (DOJIN NEWS, No. 96, p 1-6, 2000). A solution in which water-soluble fullerene of Example 2 was dissolved in a Hanks' balanced salt solution so that it might be 200 μM was dispensed to 35 mm dish by 750 μL. This was mixed with 600 μL of a Hanks' balanced salt solution and 150 μL of viable count measurement reagent SF and, while stirred, irradiated with ultrasonic waves of various output (1.5, 2.0, 2.5 and 3.0 W/cm^2) with a frequency of 1 MHz, output mode (Duty cycle) 30% for five minutes from the liquid surface using an sonodynamic therapy device US-700 (Ito Ultrashort Wave Company). After irradiation, absorbance of the solution at 450 nm was measured with a spectrophotometer DU-650. The absorbance of the solution irradiated with ultrasonic wave without adding a compound at 450 nm was assumed as control and the amount of generated O2 per minute was shown in FIG. 7.

For “Fullerene Linked to One Molecule of PEG (Molecular Weight 5000) [Example 1]”, the “molecular weight of aggregate formed by self assembly” value [1] was “about 100,000”, the “increase of tumor volume” value ([2]; Colon26 bearing CDF1 mice, administration combined with light irradiation of tumor site, three consecutive days) was “Increase of a tumor volume was suppressed” and the “order of tumor suppression effect by administration route” value ([2]; subcutaneous or intra-tumor 6 mg/mL 100 μL, light 5 minutes after, intravenous 60 mg/mL 100 μL, light 24 hours after) was “subcutaneous administration<intra-tumor administration<intravenous administration”. For the same substance, the “particle diameter of aggregate” value [3] was “about 50 nm”.
With “Fullerene Linked to One Molecule of PEG (Molecular Weight 12000) [Example 2]” the “generation of O2− on light irradiation” value [4] was “generation of O2— was observed in a wide wavelength range from ultraviolet to visible light areas”, the “wavelength range of particularly significant O2− generation” value [4] was 260 to 450 nm and the “survival rate of cancer cells” value (RLmale 1 cells) was “significantly decreases the survival rate of cancer cells as the addition amount thereof increases”. The “amount of active oxygen on ultrasonic irradiation” value [5] was “the amount of active oxygen increases according to the output increases” and the “particle diameter of aggregate” value [3] was “about 100 nm”.
